The values below come from patent publication US11173149B2, “Inhibition of protein disulfide-isomerase A3” (Romark Laboratories L.C., priority 2017, dated 2021).

Test [1] deals with PDIA3-HA protein-protein interaction. The class given is cell-based, canine.
The test system of test [2] is PR8 IAV HA transport to the plasma membrane. The class given is cell-based. To be noted: NTZ 5 μg/ml after adsorption, A549 cells, PR8 5 PFU/cell, 6 h p.i.
For a further test, the target named is T1, recombinant human PDIA3 (Homo sapiens, UniProt P30101).
T1 construct: full-length recombinant human PDIA3 (rhPDIA3, Abcam); purchased Abcam
T1 sequence (P30101 25-505): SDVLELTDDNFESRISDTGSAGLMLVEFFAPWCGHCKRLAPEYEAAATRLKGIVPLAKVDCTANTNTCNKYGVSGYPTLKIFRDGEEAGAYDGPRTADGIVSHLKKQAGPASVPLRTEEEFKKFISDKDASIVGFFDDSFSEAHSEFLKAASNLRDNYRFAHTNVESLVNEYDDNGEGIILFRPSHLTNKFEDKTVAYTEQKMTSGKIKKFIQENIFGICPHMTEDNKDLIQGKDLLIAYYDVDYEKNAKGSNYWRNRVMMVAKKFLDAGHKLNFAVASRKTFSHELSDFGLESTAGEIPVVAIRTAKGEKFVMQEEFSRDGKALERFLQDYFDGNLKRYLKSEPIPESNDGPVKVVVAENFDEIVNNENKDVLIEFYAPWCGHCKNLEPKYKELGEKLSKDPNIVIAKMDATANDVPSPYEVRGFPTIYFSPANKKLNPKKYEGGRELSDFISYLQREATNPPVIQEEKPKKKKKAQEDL
The test can be described thus: Disulfide reductase activity assay with Di-E-GSSG substrate. The class given is biochemical. The protocol: PDIA3 activity was determined by enzyme-dependent disulfide reduction assay. The disulfide reductase activity was tested in vitro using dieosin glutathione disulfide (Di-E-GSSG) as substrate. Recombinant human PDIA3 (rhPDIA3) (2 nM), pre-incubated with different concentrations of TIZ or control diluent (DMSO) for 10 min. at room temperature, was added to Di-E-GSSG (150 nM) in the presence of 5 μM DTT (arrow). PDIA3 reductase activity cleaves the S—S bond of Di-E-GSSG resulting in the release of fluorescent 2-eosin-GSH (EGSH). The increase in fluorescence was monitored at λ=545 nm with excitation at λ=525 nm, and expressed as relative fluorescence units (RFU).
FIG. 4A-B show effect of TIZ on PDIA3 and PDIA1 disulfide reductase activity. Effect of TIZ (5 μg/ml) on PDIA3 and PDIA1 (PDI) activities were measured by Di-E-GSSG assay using the same concentration (20 nM) of PDIA3 or PDIA1.
Disulfide reductase (DR) activity of PDIA3 or protein disulfide isomerase (PDI) was monitored by sensitive fluorescent assay using dieosin glutathione disulfide (Di-E-GSSG) (Cayman Chemical) as a substrate. DR activity assay was performed in a reaction buffer (0.1 M potassium phosphate, pH 7.0; 2 mM EDTA) by adding 2 or 20 nM of full-length recombinant human PDIA3 (rhPDIA3, Abcam) or PDI (rhPDIA1, R&D Systems) to different concentrations of Di-E-GSSG in the presence of 5 μM DTT. The reductase activity of disulfide isomerases cleaves the S—S bond of Di-E-GSSG resulting in the release of fluorescent 2-eosin-GSH (EGSH). To test the effect of TIZ on PDIA3 and PDI reductase activity, recombinant human PDIA3 or PDIA1 were previously incubated for 10 min at room temperature with different concentrations of TIZ or control diluent (DMSO) in the reaction buffer, unless differently specified. The increase in fluorescence was monitored at λ=545 nm with excitation at λ=525 nm at 25° C. with continuous stirring, and expressed as relative fluorescence units (RFU).
Thiazolides inhibit PDIA3 disulfide isomerase activity. To investigate whether thiazolides may directly affect PDIA3 disulfide-isomerase activity, we performed a fluorescence-based reductase in vitro assay using purified full-length recombinant human PDIA3 and oxidized glutathione coupled to dieosin (Di-E-GSSG) as a substrate. NTZ's circulating active metabolite, TIZ, was utilized for these studies.
Recombinant human PDIA3 (rhPDIA3) (2 nM) was pre-incubated with different concentrations of TIZ or control diluent (DMSO) for 10 min. at room temperature. […] PDIA3 reductase activity cleaves the S—S bond of Di-E-GSSG resulting in the release of fluorescent 2-eosin-GSH (EGSH), that is measured in function of time by fluorimetry, as described in Materials and Methods. […]

Each structure is given as a SMILES string.

As to `CC(=O)Oc1ccccc1C(=O)Nc1ncc([N+](=O)[O-])s1` [NTZ, nitazoxanide], in test [1], the “HA-PDIA3 interaction detected by PLA” value is given as “PDIA3 strongly interacts with HA forming large spots”. For the same compound, in test [2], the “plasma membrane-incorporated HA (HA transport to the plasma membrane)” value is “inhibits PR8 IAV HA transport to the plasma membrane”. Besides, the “PDIA3 disulfide-isomerase activity in an in vitro assay (conclusion statement)” value on recombinant human PDIA3 was “directly inhibits PDIA3 disulfide-isomerase activity”.

Consider `O=C(Nc1ncc([N+](=O)[O-])s1)c1ccccc1O` [TIZ, tizoxanide], for which, on recombinant human PDIA3 (TIZ 5 μg/ml, PDIA3 or PDIA1 20 nM, preliminary experiment), the “effect on PDIA3 versus human PDIA1 reductase activity” value is “preferentially inhibits PDIA3 reductase activity”. Also, on recombinant human PDIA3 (rhPDIA3 2 nM, Di-E-GSSG 150 nM, 5 μM DTT), the “lowest TIZ concentration tested at which inhibitory activity was observed” value amounted to 1 µg/mL. Further, at recombinant human PDIA3 (rhPDIA3 2 nM, pre-incubated 10 min with different TIZ concentrations, Di-E-GSSG 150 nM, 5 μM DTT), the “PDIA3 disulfide reductase activity (time-course of EGSH fluorescence)” value is listed as “inhibits PDIA3 activity in a dose-dependent manner”.
